Our source for the AC50, IC50 and EC50 values is ChEMBL document CHEMBL1201862, “PubChem BioAssay data set” (2004).

In experiment [1] the target is T1, Adenosylmethionine-8-amino-7-oxononanoate aminotransferase (Mycobacterium tuberculosis, UniProt P9WQ81).
T1 sequence (P9WQ81 whole entry): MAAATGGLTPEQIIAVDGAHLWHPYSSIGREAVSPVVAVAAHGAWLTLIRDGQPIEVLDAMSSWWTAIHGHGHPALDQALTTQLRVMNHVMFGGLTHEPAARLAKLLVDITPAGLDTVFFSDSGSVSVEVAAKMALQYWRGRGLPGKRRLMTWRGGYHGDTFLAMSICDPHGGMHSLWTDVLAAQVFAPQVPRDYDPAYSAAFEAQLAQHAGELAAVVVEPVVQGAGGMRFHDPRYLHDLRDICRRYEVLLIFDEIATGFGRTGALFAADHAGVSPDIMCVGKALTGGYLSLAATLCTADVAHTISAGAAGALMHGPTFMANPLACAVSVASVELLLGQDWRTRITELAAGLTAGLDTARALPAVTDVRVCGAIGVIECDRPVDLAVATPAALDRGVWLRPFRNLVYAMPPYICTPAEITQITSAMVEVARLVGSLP
As to the kind of experiment: Mycobacterium tuberculosis BioA enzyme inhibitor Measured in Biochemical System Using Plate Reader - 2163-02_Inhibitor_Dose_CherryPick_Activity. In kind it is functional, Mycobacterium tuberculosis UT205.

Experiment [2] has as its target T2, Sentrin-specific protease 1 (Homo sapiens, UniProt Q9P0U3).
T2 sequence (Q9P0U3 whole entry): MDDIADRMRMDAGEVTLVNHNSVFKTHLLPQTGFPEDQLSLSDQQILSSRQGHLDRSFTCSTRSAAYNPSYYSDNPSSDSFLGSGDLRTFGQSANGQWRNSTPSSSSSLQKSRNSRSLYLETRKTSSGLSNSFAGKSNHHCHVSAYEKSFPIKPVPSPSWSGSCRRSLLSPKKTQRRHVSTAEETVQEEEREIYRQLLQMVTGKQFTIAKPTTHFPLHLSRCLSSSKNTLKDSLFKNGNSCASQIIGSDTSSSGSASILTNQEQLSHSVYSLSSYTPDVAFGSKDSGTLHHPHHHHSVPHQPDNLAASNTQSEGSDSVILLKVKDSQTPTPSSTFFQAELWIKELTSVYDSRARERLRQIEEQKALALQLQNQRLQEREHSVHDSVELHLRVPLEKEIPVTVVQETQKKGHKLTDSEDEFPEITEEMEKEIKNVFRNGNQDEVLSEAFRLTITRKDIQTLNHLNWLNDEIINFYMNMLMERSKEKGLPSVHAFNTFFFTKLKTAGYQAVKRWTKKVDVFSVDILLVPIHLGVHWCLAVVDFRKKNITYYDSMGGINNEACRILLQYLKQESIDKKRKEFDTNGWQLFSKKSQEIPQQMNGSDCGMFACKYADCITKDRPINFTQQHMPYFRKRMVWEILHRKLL
As to the kind of experiment: Dose response confirmation of small molecule inhibitors of the catalytic domain of the SUMO protease, SENP1 in a FRET assay. In kind it is functional. Conditions: read-out: IC50_Mean.

The target in experiment [3] is T2, Sentrin-specific protease 1. As to the kind of experiment: SENP1 catalytic domain blockers, concentration series – biochemical, kinetic FRET, dose response (AID 651697). In kind it is functional. Conditions: read-out: IC50_Mean.
A short description of experiment [4]: bead-based luminescence quenchers, dual-tagged ARNT – biochemical, AlphaScreen, cherry-pick, artefact control for ARNT-TACC3 interaction inhibitor project, dose response (AID 651705).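 Also: AlphaScreen bead proximity signal that flags compounds interfering with the detection technology; potency reflects signal decrease which marks the compound as an assay artifact.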 In kind it is functional. (Bead proximity is the source of the signal in Alpha formats.)
The target of experiment [5] is T3, RNA-binding protein pos-1 (Caenorhabditis elegans, UniProt G5EF15).
T3 sequence (G5EF15 whole entry): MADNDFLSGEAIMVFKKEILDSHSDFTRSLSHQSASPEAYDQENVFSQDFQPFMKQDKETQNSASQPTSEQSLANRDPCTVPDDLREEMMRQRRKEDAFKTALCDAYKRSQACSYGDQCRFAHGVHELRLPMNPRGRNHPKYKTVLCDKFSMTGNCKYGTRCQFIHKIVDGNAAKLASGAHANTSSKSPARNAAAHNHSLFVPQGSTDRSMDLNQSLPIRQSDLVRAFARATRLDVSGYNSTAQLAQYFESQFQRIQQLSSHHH
As to the kind of experiment: disruptors of C. elegans POS-1 RNA interaction – biochemical, fluorescence polarization, dose response (AID 1964).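 Also: purified POS-1 fused to maltose binding protein made in E. coli; potency of compounds blocking POS-1 binding to fluorescent RNA.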

In experiment [6] the target is T4, Zinc finger protein mex-5 (Caenorhabditis elegans, UniProt Q9XUB2).
T4 sequence (Q9XUB2 whole entry): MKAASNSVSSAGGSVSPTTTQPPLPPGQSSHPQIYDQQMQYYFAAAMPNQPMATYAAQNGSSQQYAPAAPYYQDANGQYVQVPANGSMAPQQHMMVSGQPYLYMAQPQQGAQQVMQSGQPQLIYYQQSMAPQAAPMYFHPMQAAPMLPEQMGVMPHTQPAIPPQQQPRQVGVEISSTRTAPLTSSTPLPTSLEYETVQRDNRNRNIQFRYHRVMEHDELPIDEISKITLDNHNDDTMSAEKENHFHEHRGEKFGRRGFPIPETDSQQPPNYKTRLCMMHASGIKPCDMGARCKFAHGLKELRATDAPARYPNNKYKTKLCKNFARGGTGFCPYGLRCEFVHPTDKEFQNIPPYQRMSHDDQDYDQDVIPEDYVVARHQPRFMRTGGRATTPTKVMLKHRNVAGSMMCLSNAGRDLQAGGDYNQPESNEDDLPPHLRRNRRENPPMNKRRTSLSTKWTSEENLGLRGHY
As to the kind of experiment: potency of MEX-5 RNA-binding blockers – biochemical, C. elegans, fluorescence polarization, dose response (AID 1960).

Experiment [7] has as its target DNA (cytosine-5)-methyltransferase 1 (Homo sapiens, UniProt P26358). Description: inhibition of DNA methylation by DNMT1 – biochemical, fluorescent molecular beacon, confirmation (AID 602386). It counts as functional.
Experiment [8] deals with T5, Mitochondrial peptide methionine sulfoxide reductase (Bos taurus, UniProt P54149).
T5 sequence (P54149 whole entry): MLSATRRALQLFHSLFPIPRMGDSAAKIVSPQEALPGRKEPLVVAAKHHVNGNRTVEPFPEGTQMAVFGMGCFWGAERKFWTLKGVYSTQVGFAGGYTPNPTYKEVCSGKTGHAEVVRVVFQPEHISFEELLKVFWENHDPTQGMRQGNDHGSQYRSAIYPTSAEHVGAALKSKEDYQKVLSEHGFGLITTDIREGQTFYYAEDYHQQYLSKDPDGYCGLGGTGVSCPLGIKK
In kind it is functional.

The target in experiment [9] is T6, Probable nicotinate-nucleotide adenylyltransferase (Staphylococcus aureus (strain N315), UniProt P65502). It counts as functional, Staphylococcus aureus subsp. aureus N315. Conditions: read-out: IC50_Mean.
Experiment [10] addresses T6, Probable nicotinate-nucleotide adenylyltransferase. In kind it is functional, Staphylococcus aureus subsp. aureus N315.
Experiment [11] concerns the target T7, Small ubiquitin-related modifier 1 (Homo sapiens, UniProt P63165). Description: SUMO1 protein-protein binding blockers, potency – biochemical, FRET, dose response (AID 624383). In kind it is functional. The conditions noted are these: read-out: IC50_Mean.
Experiment [12] deals with T7, Small ubiquitin-related modifier 1. Description: SUMO1 protein interaction blockers, potency – biochemical, fluorescence polarization, uHTS hits, dose response (AID 624382). It counts as functional. Conditions: read-out: IC50_Mean.
Experiment [13] can be described thus: cells. In kind it is functional, cell-based.
For the next experiment, the target named is T8, Aminopeptidase N (Plasmodium falciparum FcB1/Columbia, UniProt O96935).
T8 sequence (O96935 whole entry): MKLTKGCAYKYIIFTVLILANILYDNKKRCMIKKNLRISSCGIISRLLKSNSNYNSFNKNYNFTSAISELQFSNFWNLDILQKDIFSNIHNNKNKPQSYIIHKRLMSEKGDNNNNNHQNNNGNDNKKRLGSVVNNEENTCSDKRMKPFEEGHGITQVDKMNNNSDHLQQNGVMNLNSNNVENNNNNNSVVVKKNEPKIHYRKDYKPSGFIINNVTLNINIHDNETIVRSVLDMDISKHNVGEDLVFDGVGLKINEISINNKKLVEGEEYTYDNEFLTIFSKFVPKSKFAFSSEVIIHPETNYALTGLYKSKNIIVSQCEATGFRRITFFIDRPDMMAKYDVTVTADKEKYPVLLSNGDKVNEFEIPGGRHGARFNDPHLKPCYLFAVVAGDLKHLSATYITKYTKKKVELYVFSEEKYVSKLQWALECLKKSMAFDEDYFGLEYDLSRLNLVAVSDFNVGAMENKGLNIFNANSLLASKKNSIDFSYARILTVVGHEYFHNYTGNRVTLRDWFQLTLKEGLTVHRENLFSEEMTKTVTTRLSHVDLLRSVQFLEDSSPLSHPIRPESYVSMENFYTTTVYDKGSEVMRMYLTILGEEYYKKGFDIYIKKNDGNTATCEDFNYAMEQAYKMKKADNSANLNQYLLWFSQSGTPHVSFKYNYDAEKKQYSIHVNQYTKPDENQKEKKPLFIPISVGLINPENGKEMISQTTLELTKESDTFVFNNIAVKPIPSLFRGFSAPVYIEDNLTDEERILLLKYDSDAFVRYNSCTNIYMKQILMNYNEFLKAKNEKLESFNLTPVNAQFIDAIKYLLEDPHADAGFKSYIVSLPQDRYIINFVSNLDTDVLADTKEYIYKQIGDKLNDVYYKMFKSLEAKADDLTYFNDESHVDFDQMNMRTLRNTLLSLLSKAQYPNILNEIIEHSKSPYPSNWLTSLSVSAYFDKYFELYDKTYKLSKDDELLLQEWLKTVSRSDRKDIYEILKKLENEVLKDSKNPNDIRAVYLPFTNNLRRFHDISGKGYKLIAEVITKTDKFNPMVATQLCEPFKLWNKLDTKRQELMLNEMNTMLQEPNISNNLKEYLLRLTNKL
As to the kind of experiment: malaria alanyl aminopeptidase activity blockers – biochemical, fluorogenic H-Leu-NHMec substrate, 1536-well (AID 1445). Set-up: species or system Plasmodium falciparum 3D7, 3D7.

The nature of experiment [14]: cells. It counts as functional, cell-based. This is another data set of the same source.
A further experiment deals with Nonstructural protein 1 (Influenza A virus, UniProt Q194T2). It counts as functional, Influenza A virus (A/California/07/2009(H1N1)).

The source made the active and inactive calls.

T7 sequence (P63165 whole entry): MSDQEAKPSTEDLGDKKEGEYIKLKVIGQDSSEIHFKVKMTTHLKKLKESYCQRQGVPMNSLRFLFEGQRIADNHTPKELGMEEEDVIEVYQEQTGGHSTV
Chain of DNA (cytosine-5)-methyltransferase 1 (P26358 whole entry): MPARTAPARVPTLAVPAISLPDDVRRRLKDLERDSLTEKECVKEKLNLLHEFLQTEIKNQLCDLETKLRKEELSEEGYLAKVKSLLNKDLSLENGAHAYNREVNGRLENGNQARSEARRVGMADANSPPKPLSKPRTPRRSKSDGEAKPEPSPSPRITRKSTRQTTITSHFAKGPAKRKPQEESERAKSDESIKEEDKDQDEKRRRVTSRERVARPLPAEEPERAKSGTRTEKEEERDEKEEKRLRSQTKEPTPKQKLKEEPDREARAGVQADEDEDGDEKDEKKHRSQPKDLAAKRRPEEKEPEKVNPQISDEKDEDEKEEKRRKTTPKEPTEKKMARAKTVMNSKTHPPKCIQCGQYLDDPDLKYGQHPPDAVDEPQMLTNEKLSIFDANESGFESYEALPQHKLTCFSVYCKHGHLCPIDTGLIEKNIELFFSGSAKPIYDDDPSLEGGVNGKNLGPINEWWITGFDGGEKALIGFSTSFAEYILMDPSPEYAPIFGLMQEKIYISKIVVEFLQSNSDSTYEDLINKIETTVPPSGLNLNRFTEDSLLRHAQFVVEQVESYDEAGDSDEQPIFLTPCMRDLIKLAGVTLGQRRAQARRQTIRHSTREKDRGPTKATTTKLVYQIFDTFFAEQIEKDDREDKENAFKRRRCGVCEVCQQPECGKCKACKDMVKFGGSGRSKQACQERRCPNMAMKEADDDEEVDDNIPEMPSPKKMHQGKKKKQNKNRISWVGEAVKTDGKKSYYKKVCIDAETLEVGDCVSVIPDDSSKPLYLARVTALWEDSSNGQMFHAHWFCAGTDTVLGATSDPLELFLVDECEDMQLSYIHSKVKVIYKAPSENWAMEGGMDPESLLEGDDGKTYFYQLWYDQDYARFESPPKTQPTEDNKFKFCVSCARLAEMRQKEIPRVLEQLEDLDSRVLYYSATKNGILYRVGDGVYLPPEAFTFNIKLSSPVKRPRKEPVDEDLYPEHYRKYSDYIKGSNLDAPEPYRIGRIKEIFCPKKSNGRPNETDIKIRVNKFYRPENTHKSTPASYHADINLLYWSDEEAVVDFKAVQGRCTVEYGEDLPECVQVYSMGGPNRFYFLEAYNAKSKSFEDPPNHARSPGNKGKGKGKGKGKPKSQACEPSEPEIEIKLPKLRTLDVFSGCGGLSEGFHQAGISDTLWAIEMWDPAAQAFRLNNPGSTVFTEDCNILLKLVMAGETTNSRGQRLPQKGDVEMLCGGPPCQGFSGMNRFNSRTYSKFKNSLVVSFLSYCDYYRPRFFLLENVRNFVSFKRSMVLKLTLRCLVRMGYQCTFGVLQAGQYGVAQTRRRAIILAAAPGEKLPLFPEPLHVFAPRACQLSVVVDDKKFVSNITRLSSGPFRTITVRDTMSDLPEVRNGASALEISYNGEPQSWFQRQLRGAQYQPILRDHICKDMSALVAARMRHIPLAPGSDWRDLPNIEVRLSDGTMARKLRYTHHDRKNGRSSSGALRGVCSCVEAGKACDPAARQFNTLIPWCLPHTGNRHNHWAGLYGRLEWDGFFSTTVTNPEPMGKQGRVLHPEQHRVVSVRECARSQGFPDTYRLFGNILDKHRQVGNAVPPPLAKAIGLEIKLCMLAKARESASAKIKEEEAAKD
T6 sequence (P65502 whole entry): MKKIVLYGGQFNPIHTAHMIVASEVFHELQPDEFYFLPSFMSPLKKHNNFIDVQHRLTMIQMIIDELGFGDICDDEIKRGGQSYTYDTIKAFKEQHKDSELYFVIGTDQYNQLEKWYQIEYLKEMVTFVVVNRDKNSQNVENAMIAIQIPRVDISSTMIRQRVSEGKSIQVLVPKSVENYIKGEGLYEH
Chain of Nonstructural protein 1 (Q194T2 whole entry): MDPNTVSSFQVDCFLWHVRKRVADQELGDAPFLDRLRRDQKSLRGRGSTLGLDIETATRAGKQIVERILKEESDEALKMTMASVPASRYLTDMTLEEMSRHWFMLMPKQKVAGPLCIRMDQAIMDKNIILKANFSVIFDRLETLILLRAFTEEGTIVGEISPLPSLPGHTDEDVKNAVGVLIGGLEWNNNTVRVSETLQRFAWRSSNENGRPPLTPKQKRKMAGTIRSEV

Take `CC(=O)c1ccc(N2CCN(C(=O)c3ccc(Br)cc3)CC2)c(F)c1`: in experiment [1], the AC50 – broadly, the midpoint of the concentration-response curve, whichever way the signal moves – was 0.182 µM (active). Turning to `Nc1ccc2c(c1)C(=O)N(CCCC(=O)O)C2=O`, the IC50 in experiment [2] was 19 µM (active); in [3], 13.1 µM (active). Regarding `O=C(CSc1ccc2nnc(-c3ccccn3)n2n1)Nc1ccc2c(c1)OCO2`, the AC50 in experiment [4] was 107 µM (active). Turning to `O=C(Nc1nnc(C2=COCCO2)o1)c1ccc([N+](=O)[O-])cc1`, the AC50 in experiment [4] is 101 µM (active). On to `CC1(C)CC(=O)C=C(c2ccc3ncccc3c2)C1`, for which the AC50 in [1] was 4.74 µM (active). Take `Cc1c(C(=O)O)cccc1-n1c(C)cc(/C=C2\C(=O)NC(=O)N(c3ccc4c(c3)OCO4)C2=O)c1C`: the EC50 in [5] and in [6] was > 300 µM (not active) throughout. Moreover, in experiment [7], the IC50 was 18 µM (active). `CCc1occc(=O)c1Oc1cc(NN2CCCCC2)c([N+](=O)[O-])cc1[N+](=O)[O-]`: the IC50 in experiment [8] was 119 µM (inactive). Regarding `O=C(Nc1ccc2nccnc2c1)c1cnccn1`, the AC50 in [1] was 6.04 µM (active). For the molecule `N#C/C(=C\Nc1ccccc1O)c1nc2ccccc2o1`, the IC50 in experiment [8] is 155 µM (inactive). As for `COc1ccc(Oc2c(OC)cc(NCc3ccc(CN)cc3)c3ncccc23)cc1`, the IC50 in experiment [9] is 41.3 µM (active); in [7], 10.3 µM (active); in experiment [10], 7.55 µM (active).

Take `CC(=O)c1ccc(OCCCC(=O)OCC(=O)Nc2ccc3[nH]c(O)nc3c2)cc1`: the IC50 is 16.9 µM (active) in experiment [11] and > 66.6 µM (inactive) in experiment [12].

For `O=C(N/N=C/c1cc(Br)ccc1O)C(c1ccncc1)N1CCOCC1` (stereo not drawn), in experiment [4], the AC50 is 78.4 µM (active). The values for the concentration for a half-maximal effect (EC50) in the experiment “cells [13]” and in the experiment “cells [14]” were 189 µM (active) and > 350 µM (not active), respectively. Further, the IC50 on Aminopeptidase N was 12 µM (active); at Nonstructural protein 1 it was 12.5 µM (active). With `C/C(CCC(=O)O)=N/Nc1ccc([N+](=O)[O-])cc1[N+](=O)[O-]`, the IC50 in experiment [8] was 155 µM (inactive).
